Consider 9 compounds from patent US20060045880A1 (priority 2004, published 2006).

In data set [1] the test system is APJ transcript. Briefly: Antisense morpholino loss-of-function in frog embryos (APJ). The data set is classed as in vivo, Xenopus laevis. The method, then:
One antisense morpholino oligonucleotide, designed to block translation from both copies of the APJ transcript, was targeted immediately upstream of the initiation ATG: apj 5′-[…]-3′ (SEQ ID NO:9).
The 5 base pair mismatch control sequence for the apj morpholino oligonucleotide (apjmm) is: apjmm 5′-AAGcCTcTGTGcAAcCAATAcAAAG-3′ (SEQ ID NO:10); the mismatch bases indicated in lowercase.
(§1) Morpholino oligonucleotides were reconstituted in 50 mM HEPES buffer (pH 8.0) and injected into the frog embryo. The ap1 MO was injected at 15 ng per embryo, and the ap2 and apj MOs were injected at 7.5 ng. Mismatch controls, ap2 mm and apjmm, were used at twice the experimental dose (15 ng). The MOs were injected into one cell of a 2 cell embryo together with Texas Red Dextran (10 ng; Molecular Probes) as a lineage tracer. Embryos were grown to stage 35 when they were assayed by in situ hybridization using the vascular marker, erg.

The subject of data set [2] is apelin transcript. As to the kind of experiment: Antisense morpholino loss-of-function in frog embryos (apelin). The data set is classed as in vivo, Xenopus laevis. The method, then:
Loss-of-function experiments were performed using antisense morpholino oligonucleotides (MOs) (Gene Tools, Philomath, Oreg.), and the results are shown in FIG. 9. All morpholino oligonucleotides were designed based on recommendations from Gene Tools.
as §1

Data set [3] has as its system apelin expression. As to the kind of experiment: Apelin expression in cardiac myocytes under cobalt chloride (hypoxia mimic), PCR. The data set is classed as cell-based, rat. The method, then:
Preliminary experiments were carried out using primary rat cardiomyocyte cells in culture and treatment with cobalt chloride. This procedure is accepted as an equivalent to culturing cells under hypoxic conditions because HIF-1α is a metal responsive transcription protein (Ladoux and Frelin, 1994; Piret et al., 2002; Maxwell and Salnikow, 2004). Fetal rat cardiac myocytes were plated and cultured in DMEM (Invitrogen, Carlsbad, Calif.) supplemented with 10% fetal calf serum and penicillin/streptomyocin at 37° C. After four days of culture, medium was removed, and cells were treated with fresh media containing 150 μM Cobalt Chloride (Piret et al., 2002). […] After 4 hours of culture, cells were harvested, and total RNA was extracted using the Trizol procedure according to the manufacturers recommendations (Invitrogen, Carlsbad, Calif.).
Following PCR, amplification products were fractionated on an agarose gel and visualized using ethidium bromide staining under ultraviolet light (FIG. 12).
The myocytes were grown in the presence of Cobalt chloride (30 μg/ml). A control known to be non-responsive to hypoxic conditions was used (β-actin), as well as two positive controls which are known to be responsive to hypoxic conditions (VEGF and GLUTI).

Data set [4] relates to BAE/APJ#2 cells. Briefly: BAE/APJ#2 cell proliferation, BrdU incorporation. The arrangement: effect on VEGF-mediated proliferation: dose or concentration left out as unconfirmed. The data set is classed as cell-based, bovine. The method, then: (§2) Bovine aortic endothelial cells (BAE) were cultured in DMEM supplemented with 10% fetal bovine serum (FBS) and penicillin/streptomycin. For generation of stable cell lines expressing APJ, the mouse APJ coding region was cloned into the pcDNA 3.1 vector downstream of the CMV promoter, in frame with a myc epitope at the C-terminal end of the protein, and upstream of the neomycin gene. Bovine aortic endothelial (BAE) cells were transfected with this construction using the Superfect transfection kit (Qiagen) and selected for resistance to G418 (600 μg/ml). Colonies were isolated and screened using RT-PCR for expression of mouse APJ and also by immunocytochemistry for expression of the myc epitope.

Data set [5] has as its system mouse endothelial cells (bEnd3). Briefly: bEnd3 cell proliferation, BrdU incorporation. The data set is classed as cell-based. The method, then:
Similar cellular proliferation assays were performed using mouse endothelial cells (bEnd3) that constitutively express APJ. […] SU1498 was included in proliferation cultures at a 25 μM concentration, and results were assayed using BrdU incorporation.
Proliferation inhibition experiments with the bEnd3 cells also were carried out using FGF (50 ng/ml) or the FGF pathway inhibitor SU5402 (FIG. 19). SU5402 was included in proliferation cultures at a 20 μM concentration, and results were assayed using BrdU incorporation.
(Dividing cells build labelled thymidine or BrdU into new DNA.)

In data set [6] the test system is BAE/APJ#2 cells. Particulars: 10 ng/ml in bottom chamber, 16 hours. On the procedure: as §2
Cell migration assays were performed using Transwell cell culture migration chambers (Becton Dickinson) with 8 micron pore size. BAE/APJ#2 cells were plated in serum free conditions in 100 μl at a concentration of 1×10^5 ml in the upper chamber of the migration chamber. Following cell attachment to the membrane, 10 ng/ml of growth factor was added to the bottom chamber, in a total volume of 0.5 ml. […] Cells attached to the membrane in the lower chamber were stained with DAPI, and 3 random fields were counted for each experimental condition.

“5′-AAGGCTGTGTGGAAGCAATAGAAAG-3′ (all phosphorodiamidate morpholino (PMO)) [antisense morpholino to the APJ receptor]”: the “embryos with decrease in angiogenic growth of blood vessels” value in data set [1] (7.5 ng, N=48, stage 35) is given as 71 % of the embryos. For “5′-AAGcCTcTGTGcAAcCAATAcAAAG-3′ (antisense AAGCCTCTGTGCAACCAATACAAAG; all phosphorodiamidate morpholino (PMO)) [apjmm]”, the “alteration in the vascular growth of the embryos” value in data set [1] (mismatch control, 15 ng) is “did not produce a detectable alteration”. For “5′-GATTCATGTTTCTTGTGGCTGAGTG-3′ (all phosphorodiamidate morpholino (PMO)) [ap2]”, in data set [2] (7.5 ng, N=64, stage 35), the “embryos with loss of intersomitic vessel formation” value is on record as 63 % of the embryos. As for “5′-GATTgATcTTTgTTGTGcCTcAGTG-3′ (antisense GATTGATCTTTGTTGTGCCTCAGTG; all phosphorodiamidate morpholino (PMO)) [ap2 mm]”, in data set [2] (mismatch control, 15 ng), the “alteration in the vascular growth of the embryos” value was “did not produce a detectable alteration”. With “5′-GTGCCCAAAGTCTGAGATTCATGTT-3′ (all phosphorodiamidate morpholino (PMO)) [ap1]”, the “embryos with inhibition of angiogenic growth of embryonic blood vessels” value in data set [2] (15 ng per embryo, N=76, stage 35) is given as 67 % of the embryos. Take `[Cl][Co][Cl]` [Cobalt Chloride]: the “apelin expression (PCR)” value in data set [3] (150 μM Cobalt Chloride, 4 hours, fetal rat cardiac myocytes) is recorded as “significantly increased”. For the same compound, the apelin expression entry in data set [3] (Cobalt chloride 30 μg/ml, rat cardiac myocytes) is given as “induced”. In the case of `CC(C)c1cc(/C=C(\C#N)C(=O)NCCCc2ccccc2)cc(C(C)C)c1O` [SU1498], the “effect on VEGF-mediated proliferation” value is recorded as “partially inhibits” in data set [4] (SU1498) and “partially inhibits” in data set [5] (bEnd3, SU1498 25 μM, VEGF 50 ng/ml). The “effect on apelin-mediated proliferation” value in data set [4] (SU1498 10 ng/ml) is “no significant effect”; in data set [5] (bEnd3, SU1498 25 μM, apelin 10 ng/ml) it was “no significant effect”. With `Cc1c[nH]c(/C=C2\C(=O)Nc3ccccc32)c1CCC(=O)O` [SU5402], the “effect on the proliferative effect of FGF” value in data set [5] (bEnd3, SU5402 20 μM, FGF 50 ng/ml) is “partially inhibited”. In addition, the “effect on apelin-stimulated cellular proliferation” value in data set [5] (bEnd3, SU5402 20 μM, apelin 10 ng/ml) is “did not have a significant effect”. As for VEGF, the “endothelial cell migration (cells per field)” value in data set [6] is “increase in migration”. For the same compound, the “cellular proliferation of endothelial cells” value in data set [5] (bEnd3, apelin 10 ng/ml, VEGF 50 ng/ml, FIG. 17 0.1 ng/ml to 1 μg/ml) was “proliferate”.
